Laboratory results taken from patent US9657046B2, “Methods for the treatment and prevention of inflammatory diseases” (Children's Medical Center Corporation, priority 2010, dated 2017).

How the values were obtained:
pulmonary NKT cells = experiment: Lung NKT cell subsets (CD4+, DN) by FACS after i.p. glycolipid in 2 week-old mice; assay type: in vivo, mouse; conditions: i.p. PI57 50 μg or α-GalCer 2 μg, lung 2 wks later
Method: (§1) In FIGS. 6A-6B, two-week-old BALB/c mice (n=6-8/group) (6A) or Tbet^−/− mice (6B) (n=4-6 per group) received 5 μg […] (cGal), 2 μg α-GalCer, or vehicle. After OVA sensitization and challenge, AHR was measured on day 44. In FIG. 6C, donor mice were treated with α-C-GalCer (5 μg) or vehicle i.p. NKT cells served as donors, as in FIG. 4A (n=4 per group). Lung resistance (left) and cell counts in BAL (right) were assessed. […] In FIG. 6E, mice received PI57 (50 μg), α-GalCer (2 μg), or vehicle i.p., and lungs were examined 1 or 14 days later for CD4 and CD8 expression. In FIG. 6F, absolute numbers of CD4^+ NKT and DN NKT subsets from 6E were assessed. In FIG. 6G, BALB/c mice (n=5-8/group) received PI57 or vehicle i.p. Lung resistance (left) and BAL cells (right) were assessed. In FIG. 6H, BALB/c mice treated with PI57 (50 μg), PBS30 (Sphingomonas glycolipid) (50 μg), or vehicle i.p. were assessed for AHR as in 6G. In FIG. 6I, donor mice were treated with PI57 (50 μg) or vehicle i.p. NKT cells served as donors as in FIG. 4A. Lung resistance (left) and BAL cells (right) were assessed (n=4 per group). […]
(§2) Cells were preincubated with anti-Fey blocking mAb (2.4G2) and washed before staining. […] Cells were analyzed on a BDCanto flow cytometer (BD Biosciences) using FlowJo 8.3.3 software (Tree Star, Inc.).

T-bet−/− mice = experiment: OVA-induced AHR in T-bet−/− mice treated with glycolipid at 2 weeks of age; assay type: in vivo, mouse; conditions: 2 wk old T-bet−/− mice; α-C-GalCer 5 μg or PI57 50 μg; AHR measured on day 44
Method: as §1, with “In FIG. 6I, donor mice were treated with PI57 (50 μg) or vehicle i.p. NKT cells served as donors as in FIG. 4A.” left out
In FIG. 10, NKT cells from α-GalCer or vehicle-treated mice were adoptively transferred to OVA-sensitized BALB/c recipients. AHR was measured after OVA challenge. […] After sensitization and challenge with OVA, AHR was measured on day 44. […]
To induce AHR, BALB/c mice were sensitized with 100 μg of OVA (Sigma-Aldrich) in alum administered i.p (on day 0). […] AHR was assessed on the day after last OVA-challenge. […]

mouse NKT cell lines = experiment: Staining of mouse NKT cell line with PI57-loaded CD1d tetramers; assay type: binding
Method: In FIG. 7A, NKT cell lines were cocultured with BM-derived DCs (BMDCs) and α-GalCer (100 ng/ml), PI57 (10 μg/ml), or vehicle for 48 hours, with or without pre-incubation with anti-CD1d (10 μg/ml). IFN-γ was measured by ELISA. In FIG. 7B, murine NKT cell lines were cocultured as in 7A with BMDCs from WT, Cd1d^−/−, Myd88^−/−, or Trif^−/− mice. Cells were treated with α-GalCer (100 ng/ml), PI57 (2.5, 5, or 10 μg/ml), PBS30 (1, 2.5, or 5 μg/ml), or vehicle for 48 hours. IFN-γ and IL-4 were measured by ELISA. […] In FIG. 7D, mouse NKT cell lines were stained with PE-labeled CD1d tetramers of PI57 or α-GalCer at 4° C. for 45 minutes or 37° C. for 25 minutes, and with anti-TCRβ-APC antibody. Top: Lymphocytes were gated in the FSC/SSC window. Bottom: Percentage of CD1d tetramer+ cells. […] In FIG. 7G, CD1d Fc-coated Maxisorp plates were loaded with lipid and cultured with 5×10^4 NKT cells. IFN-γ was analyzed by ELISA after 24 hours. Data represent 3 or 5 independent experiments.
To generate PI57 loaded mCD1d monomers, a 10-fold molar excess of PI57 in DMSO at 2 mg/ml was incubated with biotinylated-mCD1d (from the NIH Tetramer facility) in 2 mM CHAPS and 20 mM Tris pH7.0 overnight at room temperature. […]
as §2

CCCCCCCCCCCCCC(=O)OC[C@H]1O[C@H](O[C@H]2CC[C@@]3(C)C(=CC[C@H]4[C@@H]5CC[C@H]([C@H](C)CCCC(C)C)[C@@]5(C)CC[C@@H]43)C2)[C@H](O)[C@@H](O)[C@@H]1O [PI57, Cholesteryl 6-O-tetradecanoyl-α-D-glucopyranoside]
number of NKT cells (CD4+ and DN subsets) in the lung (pulmonary NKT cells): increased the total number of NKT cells, particularly the number of DN NKT cells
protection against OVA-induced AHR in T-bet−/− mice (T-bet−/− mice): did not protect against subsequent OVA-induced AHR
fraction of PI57-CD1d tetramer+ cells that were CD4− (DN) (mouse NKT cell lines): 92%
NKT cells in an NKT cell line stained by glycolipid-loaded CD1d tetramers (mouse NKT cell lines; 4° C. for 45 minutes or 37° C. for 25 minutes): 10-23%
